# US8012717B2, “Method for the production of cladribine” (Explora Laboratories S.A., priority 2006, dated 2011)
# Type: physicochemical
# Description: 0.42 g (equal to 2.5 mMoles) of 2-chloroadenine were suspended in 50 ml of DMF and heated while being stirred. Aliquots of DMF were added until a complete hot solubilisation was obtained. 100 ml of solvent were necessary to obtain the solubilisation of the 2-chloroadenine.
# A solubilisation test was also carried out of 2-chloroadenine in 25% KOH in order to increase the solubilisation. 4.05 grams of 2-chloroadenine were resuspended in KOH being stirred. Aliquots of (25% w:v) KOH were added until complete solubilisation was obtained. Even after the addition of 100 ml of 25% KOH, the 2-chloroadenine remained practically undissolved.
smiles,measurement,value
Nc1nc(Cl)nc2nc[nH]c12 [2-chloroadenine],solubility in 25% KOH,practically insoluble
same,volume of solvent necessary to obtain the solubilisation,100 mL
